These are literature values, as cited in patent publication US20100143471A1, “NOVEL REDUCED DOSE PHARMACEUTICAL COMPOSITIONS OF FE[…] PSEUDOEPHEDRINE” (LUPIN LIMITED, priority 2007, published 2010).

Where a name gives a salt, the structure may show the parent alone.

In the data set the test system is seasonal allergic rhinitis symptoms. Conditions: children aged 6-11 years.

With `CC(C)(C(=O)O)c1ccc(C(O)CCCN2CCC(C(O)(c3ccccc3)c3ccccc3)CC2)cc1` (centres unmarked) [fexofenadine], the safety and sedation result (doses of up to 60 mg bid) was “safe and nonsedating”.

For the molecule `CC(C)(C(=O)O)c1ccc(C(O)CCCN2CCC(C(O)(c3ccccc3)c3ccccc3)CC2)cc1` (centres unmarked) [fexofenadine HCl], the “reduction of seasonal allergic rhinitis symptoms” value (30 mg bid) was “effectively reduces all seasonal allergic rhinitis symptoms”.
